# Counter-ions that a name gives are not always drawn. Like-named read-outs stand apart in the source and are kept apart here.
# Test system: IRE1-XBP1s (XBP1-RLuc splicing reporter in HEK293 T-REx cells)
# Assay: IRE1-XBP1s activation assay (XBP1-RLuc splicing reporter, HEK293 T-REx cells, luminescence relative to thapsigargin)
# Assay type: cell-based
# Conditions: 18 h, read-out: Activity (IRE1-XBP1s activation, luminescence as % signal relative to thapsigargin, % Tg)
# Experimental: IRE1-XBP1s activation Assay: HEK293 T-REx cells stably expressing the XBP1-RLuc splicing reporter were treated with an IRE1-XBP1s activator provided herein (10 μM) in the presence or absence of the IRE1 active site inhibitor 4μ8C (32 μM) for 18 h. Luminescence was shown as the percentage signal relative to thapsigargin (Tg) (500 nM, 18 h).
# [1] = compound 10 μM, HEK293 T-REx XBP1-RLuc reporter cells, relative to thapsigargin (Tg) 500 nM
smiles,measurement,setting,value
COc1ccccc1OCCC(=O)Nc1cnn(CC(=O)N(C)CCOc2ccc(C)cc2)c1 [Compound 28],activation at 10 µM,[1],> 50%
Cc1ccc(OCCN(C)C(=O)Cn2cc(NC(=O)CCOc3cccc(C(C)C)n3)cn2)cc1 [Compound 108],activation at 10 µM,[1],< 30%
Cc1ccc(OCCN(C)C(=O)Cn2cc(NC(=O)CCNc3ccnc(N)c3)cn2)cc1 [Compound 153],activation at 10 µM,[1],< 30%
Cc1ccc(OCCN(C)C(=O)Cn2cc(NC(=O)CCNc3cccnc3F)cn2)cc1 [Compound 189],activation at 10 µM,[1],< 30%
Cc1ccc(OCCN(C)C(=O)Cn2cc(NC(=O)CCNc3cc(Cl)nc4nccn34)cn2)cc1 [Compound 226],activation at 10 µM,[1],< 30%
Cc1ccc(OCCN(C)C(=O)Cn2cc(NC(=O)CCNc3ncccc3F)cn2)cc1 [Compound 146],activation at 10 µM,[1],30 to 50%
Cc1ccc(OCCN(C)C(=O)Cn2cc(NC(=O)CCNc3ccc(C#N)nc3C)cn2)cc1 [Compound 176],activation at 10 µM,[1],< 30%
CN(CCOc1ccc(C(F)(F)F)cc1)C(=O)Cn1cc(NC(=O)CCOc2ccccc2F)cn1 [Compound 40],activation at 10 µM,[1],> 50%
Cc1ccc(OCCN(C)C(=O)Cn2cc(NC(=O)CCNc3cccc(C)n3)cn2)cc1 [Compound 160],activation at 10 µM,[1],30 to 50%
Cc1ccc(OCCN(C)C(=O)Cn2cc(NC(=O)CCNc3c(F)cncc3C(C)C)cn2)cc1 [Compound 231],activation at 10 µM,[1],> 50%
Cc1ccc(OCCN(C)C(=O)Cn2cc(NC(=O)[C@H](C)CNc3ccc(F)nc3C)cn2)cc1 [Compound 170],activation at 10 µM,[1],30 to 50%
Cc1ccc(OCCC(=O)Nc2cnn(CC(=O)N(C)CCOc3ccc(C(F)F)cc3)c2)c(F)c1 [Compound 86],activation at 10 µM,[1],> 50%
"Cc1ccc(OCCN(C)C(=O)Cn2cc(NC(=O)C(C)COc3ccccc3)cn2)cc1 (stereo not drawn) [Compound 46, 2-methyl-N-(1-(2-(methyl(2-(p-tolyloxy)ethyl)amino)-2-oxoethyl)-1H-pyrazol-4-yl)-3-phenoxypropanamide]",activation at 10 µM,[1],> 50%
CCc1ccc(OCCN(C)C(=O)Cn2cc(NC(=O)CCOC3CCCCC3)cn2)cc1 [Compound 5],activation at 10 µM,[1],30 to 50%
Cc1ccc(OCCN(C)C(=O)Cn2cc(NC(=O)CCOc3ccnc(N)c3)cn2)cc1 [Compound 104],activation at 10 µM,[1],> 50%
"Cc1ccc(OCCN(C)C(=O)Cn2cc(NC(=O)CCNc3cnc4c(c3)OCO4)cn2)cc1 [Compound 295, 3-([1, 3]dioxolo[4,5-b]pyridin-6-ylamino)-N-(1-(2-(methyl (2-(p-tolyloxy)ethyl)amino)-2-oxoethyl)-1H-pyrazol-4-yl)propanamide]",activation at 10 µM,[1],> 50%
COc1cc(NCCC(=O)Nc2cnn(CC(=O)N(C)CCOc3ccc(C)cc3)c2)ccn1 [Compound 120],activation at 10 µM,[1],> 50%
"Cc1ccc(OCCN(C)C(=O)Cn2cc(NC(=O)CCNC(=O)c3ncc(F)cn3)cn2)cc1 [Compound 248, 5-Fluoro-N-[3-[[1-[2-[methyl-[2-(4-methylphenoxy)ethyl]amino]-2-oxo-ethyl]pyrazol-4-yl]amino]-3-oxo-propyl]pyrimidine-2-carboxamide]",activation at 10 µM,[1],< 30%
Cc1ccc(OC[C@@H](C)N(C)C(=O)Cn2cc(NC(=O)CCNc3ccnc(F)n3)cn2)cc1 [Compound 268],activation at 10 µM,[1],> 50%
Cc1ccc(OCCN(C)C(=O)Cn2cc(NC(=O)CCNc3ncccc3Cl)cn2)cc1 [Compound 148],activation at 10 µM,[1],30 to 50%
Cc1ccc(OCCN(C)C(=O)Cn2cc(NC(=O)CCNc3cc(C)cnc3F)cn2)cc1 [Compound 194],activation at 10 µM,[1],< 30%
"Cc1ccc(OCCN(C)C(=O)Cn2cc(NC(=O)C(C)(C)C(=O)Nc3ncc(F)cn3)cn2)cc1 [Compound 258, N1-(5-fluoropyrimidin-2-yl)-2,2-dimethyl-N3-(1-(2-(methyl(2-(p-tolyloxy)ethyl)amino)-2-oxoethyl)-1H-pyrazol-4-yl)malonamide]",activation at 10 µM,,< 30%
Cc1ccc(OCCN(C)C(=O)Cn2cc(NC(=O)CCNc3ncc(F)cc3C)cn2)cc1 [Compound 206],activation at 10 µM,[1],> 50%
COc1cc(C)ccc1OCCN(C)C(=O)Cn1cc(NC(=O)CCNc2ncccn2)cn1 [Compound 284],activation at 10 µM,[1],< 30%
Cc1ccc(OC[C@H](C)N(C)C(=O)Cn2cc(NC(=O)CCNc3ccnc(F)n3)cn2)cc1 [Compound 264],activation at 10 µM,[1],> 50%
Cc1ccc(OC[C@@H](C)N(C)C(=O)Cn2cc(NC(=O)CCNc3nccc(F)n3)cn2)cc1 [Compound 270],activation at 10 µM,[1],30 to 50%
Cc1ccc(OCCN(C)C(=O)Cn2cc(NC(=O)CCNc3ccc(F)nc3C)cn2)cn1 [Compound 243],activation at 10 µM,[1],< 30%
Cc1ccc(OCCN(C)C(=O)Cn2cc(NC(=O)CCOc3ccc(C)nc3C)cn2)cc1 [Compound 11],activation at 10 µM,[1],30 to 50%
Cc1ccc(OCCC(=O)Nc2cnn(CC(=O)N(C)CCOc3ccc(F)c(OC(F)(F)F)c3)c2)c(F)c1 [Compound 78],activation at 10 µM,[1],< 30%
CNc1nccc(OCCC(=O)Nc2cnn(CC(=O)N(C)CCOc3ccc(C)cc3)c2)n1 [Compound 106],activation at 10 µM,[1],> 50%
Cc1ccc(OCCN(C)C(=O)Cn2cc(NC(=O)CCOc3ccccc3Cl)cn2)cc1 [Compound 32],activation at 10 µM,[1],> 50%
Cc1ccc(OCCN(C)C(=O)Cn2cc(NC(=O)CCOc3ccncc3)cn2)cc1 [Compound 9],activation at 10 µM,[1],> 50%
Cc1ccc(OCCN(C)C(=O)Cn2cc(NC(=O)CCNc3ccnc(F)n3)cn2)cc1 [Compound 136],activation at 10 µM,[1],30 to 50%
Cc1ncc(OCCN(C)C(=O)Cn2cc(NC(=O)CCNc3ccc(F)nc3C)cn2)cn1 [Compound 241],activation at 10 µM,[1],< 30%
CN(CCOc1cc(C(F)F)on1)C(=O)Cn1cc(NC(=O)CCNc2ccnc(F)n2)cn1 [Compound 272],activation at 10 µM,[1],< 30%
C=C(C)c1cncc(F)c1NCCC(=O)Nc1cnn(CC(=O)N(C)CCOc2ccc(C)cc2)c1 [Compound 254],activation at 10 µM,[1],> 50%
Cc1ccc(OCCN(C)C(=O)Cn2cc(NC(=O)CCOc3cnccc3C(F)(F)F)cn2)cc1 [Compound 12],activation at 10 µM,[1],< 30%
COc1ccc(OCCN(C)C(=O)Cn2cc(NC(=O)CCNc3ccnc4ncnn34)cn2)cc1 [Compound 124],activation at 10 µM,[1],30 to 50%
"Cc1ccc(OCCN(C)C(=O)Cn2cc(NC(=O)CC(C)(C)Nc3ccnc(F)n3)cn2)cc1 [Compound 217, 3-((2-fluoropyrimidin-4-yl)amino)-3-methyl-N-(1-(2-(methyl(2-(p-tolyloxy)ethyl)amino)-2-oxoethyl)-1H-pyrazol-4-yl)butanamide]",activation at 10 µM,[1],< 30%
CN(CCOc1ccc(F)cc1)C(=O)Cn1cc(NC(=O)CCOc2ccccc2)cn1 [Compound 29],activation at 10 µM,[1],< 30%
"CN(CCc1ccc(Cl)cc1)C(=O)Cn1cc(NC(=O)CCOc2ccccc2)cn1 [Compound 22, N-(1-(2-((4-chlorophenethyl)(methyl)amino)-2-oxoethyl)-1H-pyrazol-4-yl)-3-phenoxypropanamide hydrochloride]",activation at 10 µM,,< 30%
Cc1ccc(OCCN(C)C(=O)Cn2cc(NC(=O)CCNc3cnc(Cl)cn3)cn2)cc1 [Compound 127],activation at 10 µM,[1],> 50%
C=C(C)c1cccc(OCCC(=O)Nc2cnn(CC(=O)N(C)CCOc3ccc(C)cc3)c2)n1 [Compound 107],activation at 10 µM,[1],< 30%
Cc1ccc(OCCN(C)C(=O)Cn2cc(NC(=O)CCOc3cccnc3N)cn2)cc1 [Compound 233],activation at 10 µM,[1],> 50%
CN(CCOc1ccc(C#N)cc1)C(=O)Cn1cc(NC(=O)CCOc2ccccc2)cn1 [Compound 25],activation at 10 µM,[1],< 30%
"Cc1ccc(OCCN(C)C(=O)Cn2cc(NC(=O)CCNc3ncc(-c4ncc(C)o4)cn3)cn2)cc1 [Compound 294, N-(1-(2-(methyl (2-(p-tolyloxy)ethyl)amino)-2-oxoethyl)-1H-pyrazol-4-yl)-3-((5-(5-methyloxazol-2-yl)pyrimidin-2-yl)amino)propanamide]",activation at 10 µM,[1],< 30%
Cc1ccc(OCCN(C)C(=O)Cn2cc(NC(=O)CCNc3cccnc3C)cn2)cc1 [Compound 174],activation at 10 µM,[1],30 to 50%
Cc1ccc(OCCN(C)C(=O)Cn2cc(NC(=O)C(CNc3ccc(F)nc3C)c3ccccc3)cn2)cc1 (stereo not drawn) [Compound 167],activation at 10 µM,[1],< 30%
Cc1ccc(OCCN(C)C(=O)Cn2cc(NC(=O)CCNc3ccc(F)nc3C)cn2)cc1 [Compound 196],activation at 10 µM,[1],> 50%
Cc1ccc(OCCN(C)C(=O)Cn2cc(NC(=O)CCNc3cc4c(cn3)OCO4)cn2)cc1 [Compound 291],activation at 10 µM,[1],30 to 50%
Cc1ccc(OCCN(C)C(=O)Cn2cc(NC(=O)/C=C/Oc3c(Cl)ccnc3C)cn2)cc1 [Compound 115],activation at 10 µM,[1],< 30%
Cc1ccc(OCCN(C)C(=O)Cn2cc(NC(=O)CCNc3cccc(Cl)n3)cn2)cc1 [Compound 156],activation at 10 µM,[1],> 50%
Cc1ccc(OCCN(C)C(=O)Cn2cc(NC(=O)CCNc3cc(C)ncc3F)cn2)cc1 [Compound 207],activation at 10 µM,[1],< 30%
Cc1ccc(OCCN(C)C(=O)Cn2cc(NC(=O)CCNc3nc(Cl)ns3)cn2)cc1 [Compound 134],activation at 10 µM,[1],> 50%
Cc1ccc(OCCC(=O)Nc2cnn(CC(=O)N(C)CCOc3ccc(C(F)(F)F)cc3)c2)c(F)c1 [Compound 67],activation at 10 µM,[1],< 30%
Cc1ccc(OCCN(C)C(=O)Cn2cc(NC(=O)CCOc3cccc(Br)n3)cn2)cc1 [Compound 100],activation at 10 µM,[1],> 50%
Cc1ccc(OCCC(=O)Nc2cnn(CC(=O)N(C)CCOc3ccc(C)c(C(F)(F)F)c3)c2)c(F)c1 [Compound 79],activation at 10 µM,[1],< 30%
Cc1ccc(OC[C@@H](C)N(C)C(=O)Cn2cc(NC(=O)CCOc3c(F)cccc3F)cn2)cc1 [Compound 82],activation at 10 µM,[1],> 50%
Cc1ccc(OCCN(C)C(=O)Cn2cc(NC(=O)CCOc3cccnc3C)cn2)cc1 [Compound 13],activation at 10 µM,[1],30 to 50%
COc1ccc(OCCN(C)C(=O)Cn2cc(NC(=O)CCNc3ccnc(OC)c3)cn2)cc1 [Compound 169],activation at 10 µM,[1],> 50%
